In publication PMC6588697, “Lugdunin amplifies innate immune responses in the skin in synergy with host- and microbiota-derived factors” (Nature Communications, 2019):
Several values for one entry are separate records, joined by “and”; a condition that tells them apart may be missing. Identical values can stand only once.

Assays:
[1] = system: S. aureus; experiment: Adhesion and invasion assay: S. aureus on pretreated PHKs (CFU); format: cell-based, Staphylococcus aureus; details: lugdunin alone; text to Fig 1a
Procedure: Fig. 1 Lugdunin sensitizes epithelial cells for innate immune defense. a Primary human keratinocytes (PHKs) were pretreated with S. epidermidis conditioned medium (CM), indicated lugdunin concentrations, or the combination of both for 20 h. Subsequently, cells were infected with S. aureus for 1.5 h followed by cell lysis and determination of colony-forming units (CFUs). Shown is one representative experiment of three independent experiments with six technical replicates ± s.e.m. n.s., not significant. b Dorsal skin of mice was pretreated with S. epidermidis CM, 1.5 µg lugdunin alone or in combination with S. epidermidis CM for 24 h. Subsequently, S. aureus CFUs were determined. Horizontal lines represent the mean of each group ± s.e.m. c PHKs were treated with 2 μM lugdunin or with S. epidermidis CM alone or in combination for 20 h and subsequently expression of indicated antimicrobial peptides (AMPs) (respective protein names in brackets) was analyzed and normalized to actin. Shown is one representative experiment of three independent experiments with two technical replicates ± s.e.m. d PHKs were treated with 2 µM lugdunin or 100 ng/mL Pam2Cys for 5 h and subsequently the concentration of indicated cytokines in the supernatant was analyzed by LEGENDplex^TM (BioLegend). […]

[2] = system: PHKs; experiment: AMP gene expression in PHKs (qRT-PCR, normalized to actin); format: cell-based, human; details: 20 h, 2 µM lugdunin and/or S. epidermidis CM, medium = 1, two technical replicates, Fig 1c
Procedure: Fig. 1 Lugdunin sensitizes epithelial cells for innate immune defense. a Primary human keratinocytes (PHKs) were pretreated with S. epidermidis conditioned medium (CM), indicated lugdunin concentrations, or the combination of both for 20 h. Subsequently, cells were infected with S. aureus for 1.5 h followed by cell lysis and determination of colony-forming units (CFUs). Shown is one representative experiment of three independent experiments with six technical replicates ± s.e.m. n.s., not significant. b Dorsal skin of mice was pretreated with S. epidermidis CM, 1.5 µg lugdunin alone or in combination with S. epidermidis CM for 24 h. Subsequently, S. aureus CFUs were determined. Horizontal lines represent the mean of each group ± s.e.m. c PHKs were treated with 2 μM lugdunin or with S. epidermidis CM alone or in combination for 20 h and subsequently expression of indicated antimicrobial peptides (AMPs) (respective protein names in brackets) was analyzed and normalized to actin. Shown is one representative experiment of three independent experiments with two technical replicates ± s.e.m. d PHKs were treated with 2 µM lugdunin or 100 ng/mL Pam2Cys for 5 h and subsequently the concentration of indicated cytokines in the supernatant was analyzed by LEGENDplex^TM (BioLegend). Shown is one representative experiment of three independent experiments with two technical replicates ± s.e.m. e PHKs were treated with increasing concentrations of lugdunin or 100 ng/mL Pam2Cys or Pam3Cys for 5 h and subsequently expression of chemokine (C-X-C motif) ligand 8 (CXCL8) was analyzed and normalized to actin. Shown is one representative experiment of three independent experiments, each with two technical replicates ± s.e.m. f, g Indicated cells were treated with 2 µM lugdunin or 100 ng/mL Pam2Cys as a positive control for 5 h and subsequently the concentration of CXCL8 (f) and interleukin-1α (IL-1α) (g) in the supernatant was analyzed by LEGENDplex^TM (BioLegend) and enzyme-linked immunosorbent assay (ELISA) (R&D Systems). Shown is one representative experiment of three independent experiments with two technical replicates ± s.e.m. Significant differences to control treatments were analyzed by ordinary one-way analysis of variance (ANOVA) followed by Dunnett’s multiple comparisons test (*P < 0.05; **P < 0.01; ***P < 0.001; ****P < 0.0001). n.d. = not detected. Source data are provided as a Source Data file
After 5 h or 20 h of peptide treatment, PHKs were washed once with PBS, followed by the addition of RNA lysis buffer directly into the well. Total RNA was extracted using the Nucleospin RNA Kit (Macherey-Nagel) according to the manufacturer’s protocol. Complementary DNA was synthesized using the Reverse-Transkriptase Kit (Thermo Scientific) with 2 µg of RNA, 4 µL of 5× RT buffer, 0.5 µL Maxima reverse transcriptase ([…]), 1 µL of random hexamer primer (100 µM), dNTP (10 mM), and RNAse-free water to a total volume of 20 µL. After pre-incubation of RNA with water for 10 min at 70 °C, master mix was added and incubated for 10 min at 25 °C, followed by 45 min at 50 °C and a final heat inactivation step for 5 min at 85 °C.
Quantitative reverse transcription-polymerase chain reaction (qRT-PCR) was performed in 10 µL reaction volume with SYBR^TM Green PCR Master Mix (Thermo Fisher) according to the manufacturer’s instructions using a LightCycler 96 (Roche Life Science). […]
11 subsequently expression of CAMP (LL-37) was analyzed and normalized to actin. […]

[3] = system: HNEpCs; experiment: CXCL8 expression in HNEpCs (qRT-PCR); format: cell-based, human; details: 5 h, two technical replicates
Procedure: (§1) Quantitative reverse transcription-polymerase chain reaction (qRT-PCR) was performed in 10 µL reaction volume with SYBR^TM Green PCR Master Mix (Thermo Fisher) according to the manufacturer’s instructions using a LightCycler 96 (Roche Life Science). The initial denaturation step was at 95 °C for 5 min, followed by 40 cycles with 10 s each for the denaturation step at 95 °C, the annealing at individual temperature, and the elongation at 72 °C. Primer sequences and respective annealing temperatures are listed in Supplementary Table 1. […]
(§2) 31 g+h+i: HNEpCs (b), HTEpCs (c) or PBMCs (d) were treated with increasing
(§3) 32 concentrations of lugdunin (grey bars) or 100 ng/mL Pam2Cys or Pam3Cys (white
(§4) 33 bars) as positive controls for 5 hours and subsequently expression of CXCL8 was
(§5) 34 analyzed and normalized to actin. Black bar: medium control. Shown is one
(§6) 35 representative experiment of three independent experiments with two technical
(§7) 36 replicates +/-s.e.m. Significant differences to control treatments were analyzed by
(§8) 37 ordinary one-way ANOVA followed by Dunnett’s multiple comparisons test (*P<0.05; […]

[4] = system: HTEpCs; experiment: CXCL8 expression in HTEpCs (qRT-PCR); format: cell-based, human; details: 5 h, two technical replicates
Procedure: as §1, §2, §3, §4, §5, §6, §7, §8

Lugdunin
lugdunin concentration at which pretreatment of PHKs significantly reduced the number of adhering S. aureus [1]: ≥ 2 µM
CAMP (LL-37) expression normalized to actin [2]: 189.36 and 213.04
DEFB1 (HBD-1) expression normalized to actin [2]: 1.91
DEFB4A (HBD-2) expression normalized to actin [2]: 0.69 and 0.77
DEFB103A (HBD-3) expression normalized to actin [2]: 1.53 and 1.71
RNASE7 (RNase7) expression normalized to actin [2]: 2.34 and 2.18
CXCL8 fold induction ([3]; lugdunin 0.5 µM, sheet Supp Fig 1f): 2.151 and 2.454
CXCL8 fold induction ([3]; lugdunin 1 µM): 2.621
CXCL8 fold induction ([3]; lugdunin 2 µM): 6.148 and 8.056
CXCL8 fold induction ([3]; lugdunin 3 µM): 5.836 and 8.253
CXCL8 fold induction ([3]; lugdunin 5 µM): 4.724 and 6.453
CXCL8 fold induction ([3]; lugdunin 10 µM): 1.659 and 2.014
CXCL8 fold induction ([4]; lugdunin 0.5 µM, sheet Supp Fig 1g): 1.537 and 1.231
CXCL8 fold induction ([4]; lugdunin 1 µM): 4.112 and 4.228
CXCL8 fold induction ([4]; lugdunin 2 µM): 16.564 and 16
CXCL8 fold induction ([4]; lugdunin 3 µM): 18.001 and 14.929
CXCL8 fold induction ([4]; lugdunin 5 µM): 23.264 and 22.316
CXCL8 fold induction ([4]; lugdunin 10 µM): 16.056 and 17.328
